{
  "source": "patent US9782420B2",
  "about": "“Method for treating eye diseases” (Kyoto University, priority 2013, dated 2017)",
  "key": {"[1]": {"tested_on": "CCR2 (monocyte chemoattractant protein 1 (MCP-1) receptor) deficient mice", "assay": "Experiment 1: Removal of drusen in aged mice", "type": "in vivo", "procedure": "Experiment 1: Removal of Drusen in Aged Mice\nThe effect of the compound of number 32 (Compound 32) to remove previously formed drusen in relatively aged mice was tested. CCR2 (monocyte chemoattractant protein 1 (MCP-1) receptor) deficient mice were used. The mice in the group of Compound 32 (n=30 eyes) were orally administered with 50 mg/kg/day of Compound 32 dissolved in saline five days week from the age of nine months. The mice in the control group (n=48 eyes) were orally administered with the saline. The mice in the both groups were allowed to freely drink water. At the age of 6, 9, 10, 11, 12, 13, 14, and 15 months, the mice were examined by fundus photographs, optical coherence tomography (OCT) (Multiline OCT, Heidelberg Engineering) and electroretinogram (ERG)."}, "CCR2 deficient mice": {"tested_on": "CCR2 deficient mice", "assay": "Experiment 2: Suppression of formation of drusen in young mice", "type": "in vivo", "procedure": "Experiment 2: Suppression of Formation of Drusen in Young Mice\nThe effect of the compound of number 32 (Compound 32) to suppress the formation of the drusen in young mice was tested. CCR2 deficient mice were used. The mice were allowed to freely drink water containing 0.385 mg/ml of Compound 32 from the age of two months. The mice in the control group were allowed to freely drink water not containing Compound 32. At the age of 2, 3.5, 6, and 9 months, the mice were examined by fundus photographs, OCT, and ERG."}},
  "data": [
    {"smiles": "Cc1cc(F)ccc1-c1ccc(/N=N/c2cc(S(=O)(=O)[O-])c3ccccc3c2N)cn1.[Na+]", "note": "[Compound 32, 4-amino-3-[6-(4-fluoro-2-methylphenyl)pyridine-3-ylazo]naphthalene-1-sulfonic acid sodium salt]", "values": [
      {"measurement": "numbers of the drusen found in the fundus photographs (FIG. 5)", "setting": "[1]; aged CCR2 deficient mice, oral 50 mg/kg/day from age of nine months, age 6 to 15 months, vs saline control", "value": "the drusen were gradually increased in the control group but not in the mice administered with Compound 32"},
      {"measurement": "drusen in fundus photographs (FIGS. 2 to 4)", "setting": "[1]; aged CCR2 deficient mice, oral 50 mg/kg/day in saline five days a week from age of nine months, photographs at age 9 and 15 months", "value": "the drusen disappeared in the area bounded by the line"},
      {"measurement": "time-dependent change of the numbers of the drusen in individual mice (FIG. 6)", "setting": "[1]; mice 1 to 4 administered with Compound 32, oral 50 mg/kg/day from age of nine months", "value": "gradually decreased after the administration"},
      {"measurement": "b-wave amplitudes in the electroretinogram (FIG. 7)", "setting": "[1]; mice at the age of 15 months, oral 50 mg/kg/day from age of nine months, vs control, p=<0.05", "value": "retinal function is better in the mice administered with Compound 32 than in the control mice"},
      {"measurement": "a-wave amplitudes in the electroretinogram (FIG. 14)", "setting": "CCR2 deficient mice; mice at the age of 9 months, drinking water 0.385 mg/ml from age of two months, vs control, p=<0.001", "value": "function of photoreceptor cells is better in the mice administered with Compound 32 than in the control mice"},
      {"measurement": "b-wave amplitudes in the electroretinogram (FIG. 13)", "setting": "CCR2 deficient mice; mice at the age of 9 months, drinking water 0.385 mg/ml from age of two months, vs control, p=<0.05", "value": "retinal function is better in the mice administered with Compound 32 than in the control mice"},
      {"measurement": "number of the drusen found in the fundus photographs (FIG. 12)", "setting": "CCR2 deficient mice; young CCR2 deficient mice, drinking water 0.385 mg/ml from age of two months, age 2, 3.5, 6 and 9 months, vs control, p=<0.05", "value": "the drusen were gradually increased in the control group but not in the mice administered with Compound 32"},
      {"measurement": "drusen in fundus photographs (FIGS. 9 to 11)", "setting": "CCR2 deficient mice; young CCR2 deficient mice, drinking water containing 0.385 mg/ml from age of two months, photographs at age 3.5, 6, and 9 months", "value": "the drusen did not increase"}
    ]}
  ]
}
